Data reported in PubChem BioAssay (NCI).
Values joined by “and” are separate entries in the source; they are usually repeats but may differ in a detail not shown here. Equal values may be shown once.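 48-hour exposure; five concentrations; linearly interpolated endpoints. GI50 is the concentration that inhibits growth by half. TGI: total growth inhibition.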

Key:
Assay in all cases: DTP human tumour cell line panel, 48 h
SF-539 CNS = tested on: SF-539 CNS
UACC-257 melanoma = tested on: UACC-257 melanoma
EKVX NSCLC = tested on: EKVX NSCLC
ACHN renal = tested on: ACHN renal
DU-145 prostate = tested on: DU-145 prostate
A549 NSCLC = tested on: A549 NSCLC
UACC-62 melanoma = tested on: UACC-62 melanoma
HL-60(TB) leukemia = tested on: HL-60(TB) leukemia
SK-MEL-5 melanoma = tested on: SK-MEL-5 melanoma
OVCAR-3 ovarian = tested on: OVCAR-3 ovarian

SMILES | GI50 (SF-539 CNS) | TGI (SF-539 CNS) | GI50 (UACC-257 melanoma) | TGI (UACC-257 melanoma) | GI50 (EKVX NSCLC) | TGI (EKVX NSCLC) | GI50 (ACHN renal) | TGI (ACHN renal) | GI50 (DU-145 prostate) | TGI (DU-145 prostate) | GI50 (A549 NSCLC) | TGI (A549 NSCLC) | GI50 (UACC-62 melanoma) | TGI (UACC-62 melanoma) | GI50 (HL-60(TB) leukemia) | TGI (HL-60(TB) leukemia) | GI50 (SK-MEL-5 melanoma) | TGI (SK-MEL-5 melanoma) | GI50 (OVCAR-3 ovarian) | TGI (OVCAR-3 ovarian)
Oc1ccccc1C=Nc1nc(SCc2ccccc2)nc2[nH]ncc12 | > 100 µM | > 100 µM | 52.3 µM | > 100 µM | > 100 µM | > 100 µM | 41.7 µM | > 100 µM | > 100 µM | > 100 µM | 65.2 µM | > 100 µM | 28.1 µM | 73.7 µM | 26.1 µM | 95.7 µM | 11.9 µM | 26.3 µM | 64.5 µM | > 100 µM
CCOC(=O)/C(=C\c1ccc(C#N)cc1)C(C)=O | – | > 100 µM | – | 43.2 µM | – | > 100 µM | – | 68.6 µM | – | 37.7 µM | – | > 100 µM | – | 17.5 µM | – | > 100 µM | – | 41 µM | – | > 100 µM
N#CC1=C(N)Oc2c(sc3c(Br)cccc23)C1c1ccc(Br)cc1 (centres undefined) | 0.793 µM | 3.02 µM | 1.19 µM | 15.4 µM | 3.31 µM | 20.5 µM | 0.912 µM | 9.37 µM | 0.571 µM | 2.82 µM | 0.424 µM | 2.23 µM | 0.636 µM | 16.5 µM | 0.28 µM | 0.788 µM | 2.21 µM | 14.6 µM | 0.307 µM | 1.15 µM
COc1cc(NC(=O)CSc2nc3ccc(C)cc3c(=O)n2Cc2ccccc2)cc(OC)c1OC | 3.46 µM | 13.8 µM | 4.86 µM | > 100 µM | 8.59 µM | > 100 µM | 3.49 µM | > 100 µM | 84.7 µM | > 100 µM | 10.5 µM | > 100 µM | 2.93 µM | > 100 µM | > 100 µM | > 100 µM | 3.67 µM | 23.7 µM | 9.36 µM | > 100 µM
NC1=C(c2nc(-c3ccccc3)cs2)C(c2ccc(Br)cc2)c2c(c3ccccc3oc2=O)O1 (centres undefined) | 104 µg/mL | > 150 µg/mL | > 150 µg/mL | > 150 µg/mL | 50.2 µg/mL | > 150 µg/mL | 129 µg/mL | > 150 µg/mL | 128 µg/mL | > 150 µg/mL | 46 µg/mL | > 150 µg/mL | 52.1 µg/mL | > 150 µg/mL | 21.9 µg/mL | 97.2 µg/mL | > 150 µg/mL | > 150 µg/mL | > 150 µg/mL | > 150 µg/mL
Cc1cc(=O)[nH]c2cc3c(c4c(n3Cc3ccc(Cl)cc3Cl)CC(C)(C)CC4=O)c(O)c12 | > 100 µM | > 100 µM | > 100 µM | > 100 µM | 36.4 µM | > 100 µM | > 100 µM | > 100 µM | 46.2 µM | > 100 µM | 46.3 µM | > 100 µM | > 100 µM | > 100 µM | > 100 µM | > 100 µM | 16.3 µM | 31.8 µM | > 100 µM | > 100 µM
CCN1C(=O)N(c2ccccc2)C2NC(=S)N(/N=C/C=C/c3ccccc3)C21 (centres undefined) | 0.246 µM | 0.854 µM | 25 µM | > 100 µM | 0.619 µM | > 100 µM | 0.763 µM | > 100 µM | 0.444 µM | > 100 µM | 0.417 µM | > 100 µM | 0.197 µM | > 100 µM | 0.227 µM | 0.745 µM | 0.463 µM | > 100 µM | 0.263 µM | –
S=c1ssc(Oc2ccccc2)c1Cl | 17.3 µM | 33.8 µM | 17.6 µM | 35.5 µM | 18.4 µM | 38.9 µM | 4.5 µM | 16.1 µM | 14.5 µM | 28.9 µM | 33.9 µM | > 100 µM | 14 µM | 26.9 µM | 3.21 µM | > 100 µM | 17.3 µM | 35.1 µM | 7.74 µM | 20.4 µM
COc1cc(-n2cc(-c3ccc(Cl)cc3)nc2SCc2cccc(C#N)c2)cc(OC)c1OC | 15.5 µM | 48.1 µM | – | – | 18.2 µM | 56.9 µM | 37.6 µM | > 100 µM | 48.1 µM | > 100 µM | > 100 µM | > 100 µM | 21.9 µM | > 100 µM | > 100 µM | > 100 µM | 34.8 µM | > 100 µM | 50.3 µM | > 100 µM
Oc1[nH]c2c(Br)cccc2c1C1=Nc2ccccc2/C1=N/OCCN1CCCC1 | 0.557 µM | 2.05 µM | 2.67 µM | – | 1.31 µM and 2.09 µM | > 100 µM | 0.414 µM and 0.379 µM | 2.12 µM and 3.8 µM | 0.688 µM | 4.31 µM | 1.91 µM | – | 0.973 µM | 2.45 µM | 1.04 µM and 0.998 µM | – | 1.06 µM and 0.751 µM | – | 1.48 µM | 3.45 µM
CC(=O)OCC(=O)[C@@]12OC(C)(C)O[C@@H]1C[C@H]1[C@@H]3CC=C4C[C@@H](O)CC[C@]4(C)[C@H]3CC[C@@]12C | – | 74.7 µM | – | > 100 µM | – | > 100 µM | – | > 100 µM | – | > 100 µM | – | > 100 µM | – | > 100 µM | – | > 100 µM | – | > 100 µM | – | > 100 µM
COc1ccc(S(=O)(=O)Nc2cc(/C=C\c3cc(OC)c(OC)c(OC)c3)ccc2OC)cc1 | 0.126 µM | 0.713 µM | 2.98 µM | 93.4 µM | – | – | 0.0587 µM | 17.3 µM | 0.341 µM | > 100 µM | 0.159 µM | > 100 µM | 0.049 µM | > 100 µM | 0.195 µM | 0.681 µM | 0.0488 µM | 0.778 µM | 0.053 µM | > 100 µM
OC(CNCC1CCCO1)Cn1c2ccc(Cl)cc2c2cc(Cl)ccc21 (centres undefined) | 1.66 µM | 3.13 µM | 1.64 µM | 3.13 µM | – | – | 1.68 µM | 3.16 µM | 1.83 µM | 3.37 µM | 1.87 µM | 3.69 µM | 1.78 µM | 3.46 µM | 2.3 µM | 5.51 µM | 1.77 µM | 3.26 µM | 1.82 µM | 3.28 µM
